Holding throughout (type): in vivo
The subject of assay [1] is Echinochloa crus-galli (ECHCG). The assay is described as follows: Pre-emergence herbicidal action against ECHCG. In short, it runs like this:
(§1)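 Dosages of 320 g/ha or less; pre-emergence; WP or EC in aqueous spray, 0.5% additive, 600 l/ha; greenhouse; visual % effect after ~3 wk relative to control pots.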

For assay [2], the system named is Matricaria inodora (MATIN). As to the kind of experiment: Post-emergence herbicidal action against MATIN. In short, it runs like this:
(§2)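 Rates were 320 g/ha or below, applied as aqueous WP/EC spray with 0.5% additive (600 l/ha) onto one-leaf-stage plants. About 3 weeks later in the greenhouse, damage was scored visually against untreated plants on a 0–100% scale, where 100% means plants died.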

The test system of assay [3] is Viola tricolor (VIOTR). The assay is described as follows: Pre-emergence herbicidal action against VIOTR. In short, it runs like this: as §1
Assay [4] deals with Amaranthus retroflexus (AMARE). The assay is described as follows: Post-emergence herbicidal action against AMARE. In short, it runs like this: as §2
Assay [5] relates to Abutilon theophrasti (ABUTH). The assay is described as follows: Post-emergence herbicidal action against ABUTH. The following applies: visual rating about 3 weeks after treatment vs untreated controls (100% = plants have died, 0% = like control plants). In short, it runs like this:
as §2

In assay [6] the test system is Avena fatua (AVEFA). The assay is described as follows: Post-emergence herbicidal action against AVEFA. The following applies: visual rating about 3 weeks after treatment. In short, it runs like this: as §2
Assay [7] deals with Pharbitis purpurea (PHBPU). As to the kind of experiment: Post-emergence herbicidal action against PHBPU. In short, it runs like this:
as §2

Assay [8] relates to Abutilon theophrasti (ABUTH). As to the kind of experiment: Pre-emergence herbicidal action against ABUTH. The following applies: 100% = plants have died. In short, it runs like this:
as §1

Assay [9] deals with Echinochloa crus-galli (ECHCG). As to the kind of experiment: Post-emergence herbicidal action against ECHCG. In short, it runs like this:
as §2

In assay [10] the test system is Alopecurus myosuroides (ALOMY). The assay is described as follows: Post-emergence herbicidal action against ALOMY. The following applies: visual rating about 3 weeks after treatment vs untreated controls (100% = plants have died, 0% = like control plants). In short, it runs like this: as §2
Where [11] appears, read: 80 g/ha, visual rating about 3 weeks after treatment vs untreated controls (100% = plants have died, 0% = like control plants).
The mark [12] stands for this setting: 320 g/ha, visual rating about 3 weeks after treatment.
Where [13] appears, read: Dosage column 320 g/ha (title prints 3200 g/ha), scored visually after about 3 weeks.
Where [14] appears, read: 80 g/ha, scored visually after about 3 weeks vs untreated controls, 0% = like control plants.

In the case of `COC(=O)COc1nn(-c2ncccc2F)c(-c2ccc(F)nc2)c1Br` [Example I-07], the “Pre-emergence action against ECHCG in %” value in assay [1] (dosage 320 g/ha) was 100%. Besides, the “Post-emergence action against MATIN in %” value in [2] (dosage 80 g/ha) was 90%; in [2] (dosage 320 g/ha) it was 100%. Moreover, the “Pre-emergence action against VIOTR in %” value in [3] (320 g/ha, Viola tricolor) amounted to 100%; in assay [3] (dosage 80 g/ha), 90%. For the same molecule, the “Post-emergence action against AMARE in %” value in assay [4] (setting [11]) and in assay [4] (setting [12]) was 90% throughout. Besides, the “Post-emergence action against ABUTH in %” value in [5] (80 g/ha) is reported as 80%; in assay [5] (320 g/ha), 90%. Besides, in assay [6] (320 g/ha), the “Post-emergence action against AVEFA in %” value came out at 90%. Also, the “Post-emergence action against PHBPU in %” value in assay [7] (dosage 80 g/ha) and in assay [7] (dosage 320 g/ha) was 80% throughout. Also, the “Pre-emergence action against ABUTH” value in [8] (setting [13]) amounted to 90%. In addition, the “Post-emergence action against ECHCG in %” value in [9] (dosage 320 g/ha) is on record as 90%. Further, the “Post-emergence action against ALOMY in %” value in [10] (80 g/ha) amounted to 90%; in assay [10] (320 g/ha), 100%.

Take `CCOC(=O)[C@@H](C)Oc1nn(-c2ncccc2F)c(-c2ccc(F)nc2)c1C1CC1` [Example I-375]: the “Pre-emergence action against ECHCG in %” value in assay [1] (dosage 80 g/ha) amounted to 80%; in assay [1] (dosage 320 g/ha), 100%. Besides, in assay [2] (dosage 320 g/ha), the “Post-emergence action against MATIN in %” value was 80%. Further, the “Pre-emergence action against VIOTR in %” value in [3] (320 g/ha, Viola tricolor) stood at 100%; in assay [3] (dosage 80 g/ha), 100%. Moreover, the “Post-emergence action against AMARE in %” value in [4] (setting [11]) and in assay [4] (setting [12]) was 80% throughout. Further, the “Post-emergence action against ABUTH in %” value in assay [5] (80 g/ha) and in [5] (320 g/ha) was 90% each time. Also, the “Post-emergence action against AVEFA in %” value in [6] (80 g/ha) and in assay [6] (320 g/ha) was 90% throughout. Besides, the “Post-emergence action against PHBPU in %” value in [7] (dosage 80 g/ha) is recorded as 80%; in assay [7] (dosage 320 g/ha), 90%. Also, the “Pre-emergence action against ABUTH” value in assay [8] (setting [13]) turned out to be 100%. In addition, the “Post-emergence action against ECHCG in %” value in assay [9] (dosage 80 g/ha) and in assay [9] (dosage 320 g/ha) was 90% throughout. Further, the “Post-emergence action against ALOMY in %” value in assay [10] (80 g/ha) and in assay [10] (320 g/ha) was 100% each time.

In the case of `COC(=O)CCOC(=O)[C@@H](C)Oc1nn(-c2ccccn2)c(-c2cncc(F)c2)c1Cl` [Example I-196], the “Pre-emergence action against ECHCG in %” value in assay [1] (dosage 80 g/ha) and in assay [1] (dosage 320 g/ha) was 90% throughout. Besides, the “Post-emergence action against MATIN in %” value in [2] (dosage 320 g/ha) is 80%. In addition, the “Pre-emergence action against VIOTR in %” value is on record as 100% in assay [3] (320 g/ha, Viola tricolor) and 90% in assay [3] (dosage 80 g/ha). The “Post-emergence action against AMARE in %” value in assay [4] (setting [11]) and in [4] (setting [12]) was 80% each time. Also, the “Post-emergence action against ABUTH in %” value in assay [5] (80 g/ha) and in assay [5] (320 g/ha) was 80% throughout. The “Post-emergence action against AVEFA in %” value is recorded as 80% in assay [6] (80 g/ha) and 90% in assay [6] (320 g/ha). The “Post-emergence action against PHBPU in %” value in [7] (dosage 80 g/ha) and in [7] (dosage 320 g/ha) was 90% each time. Further, the figures for the “Pre-emergence action against ABUTH” value in [8] (setting [14]) and in assay [8] (setting [13]) were 80% and 90%, respectively. The “Post-emergence action against ECHCG in %” value in assay [9] (dosage 80 g/ha) and in [9] (dosage 320 g/ha) was 80% each time. Also, the “Post-emergence action against ALOMY in %” value is 80% in [10] (80 g/ha) and 90% in assay [10] (320 g/ha).

For `COC(=O)C(C)COC(=O)[C@@H](C)Oc1nn(-c2ccccn2)c(-c2cncc(F)c2)c1Br` (some centres unmarked) [Example I-188], the “Pre-emergence action against ECHCG in %” value in assay [1] (dosage 80 g/ha) and in [1] (dosage 320 g/ha) was 100% throughout. In addition, in assay [2] (dosage 320 g/ha), the “Post-emergence action against MATIN in %” value turned out to be 80%. In addition, the “Pre-emergence action against VIOTR in %” value stood at 100% in assay [3] (320 g/ha, Viola tricolor) and 100% in assay [3] (dosage 80 g/ha). For the same molecule, the “Post-emergence action against AMARE in %” value in assay [4] (setting [12]) is on record as 80%. For the same molecule, the “Post-emergence action against ABUTH in %” value in assay [5] (80 g/ha) and in assay [5] (320 g/ha) was 80% throughout. Moreover, the “Post-emergence action against AVEFA in %” value in assay [6] (80 g/ha) and in assay [6] (320 g/ha) was 80% each time. In addition, the “Post-emergence action against PHBPU in %” value in [7] (dosage 80 g/ha) and in assay [7] (dosage 320 g/ha) was 90% in each case. Besides, the figures for the “Pre-emergence action against ABUTH” value in [8] (setting [14]) and in assay [8] (setting [13]) were 80% and 90%, respectively. Also, the “Post-emergence action against ECHCG in %” value in [9] (dosage 80 g/ha) is reported as 80%; in assay [9] (dosage 320 g/ha) it was 90%. Also, the “Post-emergence action against ALOMY in %” value in [10] (80 g/ha) was 80%; in assay [10] (320 g/ha) it was 90%.

The values are drawn from patent publication US20240041042A1, “1-(PYRIDYL)-5-AZINYLPYRAZOLE DERIVATIVES, AND THEIR USE FOR CONTROL OF UNDESIRED PLANT GROWTH” (Bayer Aktiengesellschaft, priority 2020, published 2024).
